This note sets out measurements from patent publication US5208344A, “Naphthalenepropionic acid derivatives as anti-inflammatory/antiallergic agents” (American Home Products Corporation, priority 1991, dated 1993).

The structures appear in SMILES notation. Structures can show the parent of a compound that is named as a salt.

Assay type in all cases: cell-based
Experiment [1] addresses T1, 5-lipoxygenase (Rattus norvegicus, UniProt P12527).
T1 construct: Peritoneal PMN are obtained from female Wistar rats (150-250 g); endogenous in cells; host or cells: rat glycogen-elicited peritoneal polymorphonuclear leukocytes, intact
T1 sequence (P12527 1-673): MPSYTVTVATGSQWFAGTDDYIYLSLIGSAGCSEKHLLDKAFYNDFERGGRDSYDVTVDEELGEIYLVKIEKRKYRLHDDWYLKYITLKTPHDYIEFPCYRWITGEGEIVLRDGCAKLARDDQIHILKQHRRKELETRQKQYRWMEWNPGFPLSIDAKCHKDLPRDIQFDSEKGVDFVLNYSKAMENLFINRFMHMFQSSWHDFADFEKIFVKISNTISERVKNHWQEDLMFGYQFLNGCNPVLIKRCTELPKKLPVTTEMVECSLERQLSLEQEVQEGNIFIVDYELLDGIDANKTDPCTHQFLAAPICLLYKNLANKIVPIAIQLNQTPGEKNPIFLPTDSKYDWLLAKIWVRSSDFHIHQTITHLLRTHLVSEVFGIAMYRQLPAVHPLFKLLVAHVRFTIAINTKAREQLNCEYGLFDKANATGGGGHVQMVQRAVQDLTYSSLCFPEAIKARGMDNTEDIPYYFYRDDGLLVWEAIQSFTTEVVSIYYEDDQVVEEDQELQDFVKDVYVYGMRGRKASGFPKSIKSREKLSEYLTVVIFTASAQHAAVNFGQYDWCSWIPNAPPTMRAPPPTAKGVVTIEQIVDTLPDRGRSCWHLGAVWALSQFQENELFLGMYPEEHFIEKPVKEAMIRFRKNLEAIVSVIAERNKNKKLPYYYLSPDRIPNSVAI
The experiment is described as follows: inhibition of 5-HETE synthesis by rat glycogen elicited polymorphonuclear leukocytes. Conditions: rat PMN; for inhibition at 10 µM: negative = potentiation of 5-HETE synthesis. On the procedure: The assay of this Example measures the ability of the compounds of the invention to inhibit the synthesis of 5-HETE by rat glycogen elicited polymorphonuclear leukocytes.
(§1) Peritoneal PMN are obtained from female Wistar rats (150-250 g) that received an i.p. injection of 6% glycogen (10 ml). After 24 hours, rats are killed by CO2 asphysiation and peritoneal cells are harvested by peritoneal lavage using Ca^++ and MG^++ free Hanks' balanced salt solution (HBSS). The peritoneal exudate is centrifuged at 400 g for 10 minutes. After centrifugation, the lavaged fluid is removed and the cell pellet is resuspended in HBSS containing Ca^++ and MG^++ and 10 mM L-cysteine at a concentration of 2×10^7 cells/ml. To 1 ml portions of cell suspension, test drugs or vehicle are added and incubated at 37° C. for 10 minutes. Following this preincubation, the calcium ionophore (10 μM), a23187, is added together with 0.5 μM [14 C] arachidonic acid and further incubated for 10 minutes. The reaction is stopped by the addition of ice cold water (3 ml) and acidifying to pH 3.5. Lipoxygenase products are then extracted twice into diethyl ether. The pooled ether extracts are evaporated to dryness under nitrogen and the residue is redissolved in a small volume of methanol and spotted on aluminum backed pre-coated thin layer chromatographic plates. The samples are then cochromatographed with authentic reference 5-HETE in the solvent system - hexane: ether: acetic acid (50:50:3). After chromatography, the areas associated with 5-HETE standard are identified by autoradiography, cut out and quantitated by liquid scintillation.

The subject of a further experiment is cyclooxygenase. Description: inhibition of synthesis of cyclooxygenase products TxB2 and PGE2 (rat polymorphonuclear leukocytes). Conditions: rat PMN; for % Inhibition of CO (as PGE2): negative = potentiation of PGE2 synthesis. On the procedure: as §1
However, in order to determine cyclooxygenase activity, the samples are cochromatographed with authentic reference TxB2 and PGE2 in the solvent system ethyl acetate: formic acid (80:1) and the upper phase of ethyl acetate: isooctane: acetic acid: water (110:50:20:100). After chromatography, the areas associated with the TxB2 and PGE2 standards are identified by autoradiography, cut out and quantitated by liquid scintillation techniques.

In experiment [2] the target is T2, 5-lipoxygenase (Homo sapiens, UniProt P09917).
T2 construct: Blood is obtained in 50-100 ml quantities from male donors; endogenous in cells; host or cells: human whole blood (leukocytes) from male donors
T2 sequence (P09917 1-674): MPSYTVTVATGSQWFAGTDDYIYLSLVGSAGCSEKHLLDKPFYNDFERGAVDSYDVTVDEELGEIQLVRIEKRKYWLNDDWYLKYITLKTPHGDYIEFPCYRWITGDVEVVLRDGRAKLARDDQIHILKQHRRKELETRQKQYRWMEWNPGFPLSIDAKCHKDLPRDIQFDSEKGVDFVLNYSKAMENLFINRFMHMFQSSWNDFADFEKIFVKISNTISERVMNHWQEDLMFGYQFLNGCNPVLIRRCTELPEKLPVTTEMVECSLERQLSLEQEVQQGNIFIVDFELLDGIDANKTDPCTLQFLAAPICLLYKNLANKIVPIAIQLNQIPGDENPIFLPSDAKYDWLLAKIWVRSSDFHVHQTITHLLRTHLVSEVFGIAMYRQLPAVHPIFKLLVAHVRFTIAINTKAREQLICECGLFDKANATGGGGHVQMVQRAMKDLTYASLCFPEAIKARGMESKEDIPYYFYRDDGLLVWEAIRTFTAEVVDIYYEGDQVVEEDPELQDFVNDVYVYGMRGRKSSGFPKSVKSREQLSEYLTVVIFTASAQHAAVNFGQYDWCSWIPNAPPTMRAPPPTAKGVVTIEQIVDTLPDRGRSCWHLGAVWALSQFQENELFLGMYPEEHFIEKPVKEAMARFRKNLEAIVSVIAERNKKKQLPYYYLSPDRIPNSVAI
The experiment is described as follows: inhibition of 5-lipoxygenase in human whole blood (LTB4). As for the experimental part: The assay of this Example measures the ability of the compounds tested to inhibit 5-lipxygenase in human whole blood.
Blood is obtained in 50-100 ml quantities from male donors. White blood cell counts and differentials are made. Two ml of blood are placed in a 15 ml polypropylene test tube. Compounds are solubilized in dimethylsulfoxide and diluted 1:10 in 10% bovine serum albumin in phosphate buffered saline, pH 7.4 resulting in a final dimethylsulfoxide concentration of 0.1% in the blood. Then, compounds are added to the blood in a shaking water bath at 37° C. for 10 minutes prior to the addition of 30 μM calcium ionophore (A23187; Sigma). After ionophore administration, whole blood samples are mixed and incubated for 20 minutes at 37° C. in a shaking water bath. Incubation is terminated by placing samples in an ice bath and immediately adding ethylene glycol-bis-(β-aminoethyl ether)-N,N,N',N'-tetraacetic acid (10 mM). Samples are mixed and centrifuged at 1200×g for 15 minutes at 4° C. Preparation of samples for evaluation by RIA or ELISA is carried out by the following protocol. Plasma is removed from sample tubes, placed in 15 ml polypropylene test tubes containing 8 ml methanol, and then vortexed to precipitate protein. Samples are stored at -70° C. overnight. The next day, samples are centrifuged at 200×g for 15 minutes at 4° C. to pellet the precipitate. Samples are dried in a Savant speed vac concentrator, reconstituted to original volume with ice cold RIA or ELISA buffer, and stored at -70° C. until assayed. The assay for eicosanoids (LTB4, TxB2, and PGE2) is performed as described by the manufacturer of the [^3 H]-RIA kit or ELISA kit (LTB4 -Amersham, TxB2 and PGE2 - Caymen Chemical).
The total eicosanoid level in 2 ml of blood is calculated and reported as ng/10^6 neutrophils. Significance is determined by a one-way analysis of variance with least significant difference (LSD) comparisons to control (p≤0.05) and IC50 's (μM) are determined by regression analysis (Finney, 1978). Drug effects are expressed as percent change form control values.
Compounds tested in vitro are solubilized in dimethylsulfoxide and diluted 1:10 in 10% bovine serum albumin in phosphate buffer saline resulting in a final dimethylsulfoxide concentration of 0.1% in the blood.

The mark [3] stands for this setting: read-out: % Inhibition of 5-LO (as 5-HETE).

A word on the inhibition: it is the change of the read-out against control, counted positive when it falls. As to `CC(C(=O)O)c1ccc2cc(OCc3nc4ccccc4s3)ccc2c1` (stereo not drawn) [Example 5, α-Methyl-6-(2-benzothiazolylmethoxy)-2-naphthaleneacetic acid], the inhibition at 10 µM at 5-lipoxygenase [1] (setting [3]) came out at 90%. For the same compound, the “% Inhibition of CO (as PGE2)” value with cyclooxygenase (10 μM) is reported as -35%.
For `CC(C(=O)O)c1ccc2cc(OCc3ccc4ccccc4c3)ccc2c1` (stereo not drawn) [Example 6, α-Methyl-6-(2-naphthalenylmethoxy)-2-naphthaleneacetic acid], in that order: 100% and -15%.
Turning to `C[C@@H](C(=O)O)c1ccc2cc(OCc3ccc4ccccc4n3)ccc2c1` [Example 8, R-(-)-α-Methyl-6-(2-quinolinylmethoxy)-2-naphthaleneacetic acid], the inhibition at 0.1 µM at 5-lipoxygenase [1] (0.1 μM, read-out: % Inhibition of 5-LO (as 5-HETE)) was 33%. Also, the “% Inhibition of CO (as PGE2)” value in the experiment on cyclooxygenase (0.1 μM) is -7%.
Turning to `CC(C(=O)O)c1ccc2cc(OCc3csc(-c4ccccc4)n3)ccc2c1` (stereo not drawn) [Example 9, α-Methyl-6-[(2-phenyl-4-thiazolyl)methoxy]-2-naphthaleneacetic acid], on 5-lipoxygenase [1] (setting [3]), the inhibition at 10 µM was 86%. In the experiment on cyclooxygenase (10 μM), the “% Inhibition of CO (as PGE2)” value is on record as -11%.
As for `CCCCCOc1ccc2cc(C(C)C(=O)O)ccc2c1` (stereo not drawn) [Example 12, α-Methyl-6-(pentyloxy)-2-naphthaleneacetic acid], the inhibition at 10 µM at 5-lipoxygenase [1] (setting [3]) came to 48%. Besides, the “% Inhibition of CO (as PGE2)” value in the experiment on cyclooxygenase (10 μM) is listed as -13%.
For `CC(C)=CCOc1ccc2cc(C(C)C(=O)O)ccc2c1` (stereo not drawn) [Example 14, α-Methyl-6-(3-methyl-2-butenoxy)-2-naphthaleneacetic acid], in that order: 81% and -15%.
As usually defined, the IC50 is the midpoint of a concentration-inhibition curve. Turning to `CC(C(=O)O)c1ccc2cc(OCc3ccc4ccc(Cl)cc4n3)ccc2c1` (stereo not drawn) [Example 18, α-Methyl-6-[(7-chloro-2-quinolinyl)-methoxy]-2-naphthaleneacetic acid], the IC50 is 11.4 µM on 5-lipoxygenase [1] (read-out: IC50 (inhibition of 5-LO, as 5-HETE)) and > 50 µM in the experiment with cyclooxygenase (read-out: IC50 (inhibition of CO, as PGE2)).
As for `CC(C(=O)O)c1ccc2c(Br)c(OCc3ccc4ccccc4n3)ccc2c1` (stereo not drawn) [Example 19, α-Methyl-5-bromo-6-(2-quinolinylmethoxy)-2-naphthaleneacetic acid], the inhibition at 10 µM on 5-lipoxygenase [1] (setting [3]) stood at 82%. Further, in the experiment with cyclooxygenase (10 μM), the “% Inhibition of CO (as PGE2)” value was -21%.
On 5-lipoxygenase [2] (25 μM, human whole blood), `C[C@H](C(=O)O)c1ccc2cc(OCc3nc4ccccc4s3)ccc2c1` [Example 33, S-(+)-α-Methyl-6-(2-benzothiazolylmethoxy)-2-naphthaleneacetic acid] had an inhibition at 25 µM of 54%.
Same read-out and setting: the result for `CC(C)(C(=O)O)c1ccc2cc(OCc3nc4ccccc4s3)ccc2c1` [Example 34, α,α-Dimethyl-6-(2-benzothiazolylmethoxy)-2-naphthaleneacetic acid] reads 13%; that for `C[C@H](C(=O)O)c1ccc2cc(OCc3csc(-c4ccccc4)n3)ccc2c1` [Example 35, S-(+)-α-Methyl-6-[(2-phenyl-4-thiazolyl)-methoxy]-2-naphthaleneaceticacid], 28%.
On to `CC(C)(NC(=O)NO)c1ccc2cc(OCc3nc4ccccc4s3)ccc2c1` [Example 37, N-[1-[6-(2-Benzothiazolylmethoxy)-2-naphthalenyl]-1-methyethyl]-N'-hydroxyurea], for which the inhibition at 25 µM on 5-lipoxygenase [2] (25 μM, human whole blood) amounted to 43%. Moreover, at 5-lipoxygenase [2] (human whole blood), 50.8 µM corresponded to half-maximal inhibition (IC50).
As for `C[C@H](C(=O)N(C)O)c1ccc2cc(OCc3nc4ccccc4s3)ccc2c1` [Example 41A, S-(+)-N-Hydroxy-α,N-dimethyl-6-(2-benzothiazolylmethoxy)-2-naphthaleneacetamide sodium salt hydrate], the “% Inhibition of LTB4” value at 5-lipoxygenase [2] (25 μM, human whole blood, sodium salt hydrate) is listed as 89%. In addition, the IC50 at 5-lipoxygenase [2] (human whole blood, sodium salt hydrate) is 12.2 µM.
For `C[C@H](C(=O)O)c1ccc2cc(OCc3ccccn3)ccc2c1` [Example 42, S-(+)-α-Methyl-6-(2-pyridinylmethoxy)-2-naphthaleneacetic acid one tenth hydrate], at 5-lipoxygenase [2] (25 μM, human whole blood), the inhibition at 25 µM was 11%.
Consider `C[C@H](C(=O)O)c1ccc2cc(OCc3nc4ccccc4n3C)ccc2c1` [Example 43, S-(α)α-Methyl-6-[(1-methyl-1H-benzimidazol-2-yl)-methoxy]-2-naphthaleneacetic acid], for which 25 µM produced 12% inhibition at 5-lipoxygenase [2] (25 μM, human whole blood).
On the same count and under the same terms, under `C[C@H](C(=O)O)c1ccc2cc(OCc3nc4ccccc4o3)ccc2c1` [Example 46, S-(+)-α-methyl-6-(2-benzoxazolylmethoxy)-2-naphthaleneacetic acid] stands 22%.
As to `CC(c1cc2ccccc2s1)N(O)C(N)=O` (stereo not shown) [Example A-64077, reference compound], the inhibition at 5 µM at 5-lipoxygenase [2] (read-out: % Inhibition of LTB4) was 72%.
On 5-lipoxygenase [2] (3 μM, human whole blood), `CC(C)c1ccc2c(c1)c(SC(C)(C)C)c(CC(C)(C)C(=O)O)n2Cc1ccc(Cl)cc1` [L-663,536, reference compound] had an inhibition at 3 µM of 96%.
